Test [1] deals with T1, SARS-CoV-2^A358V/F360N MD (Severe acute respiratory syndrome coronavirus 2, UniProt P0DTD1, A1176V/F1178N). The test is classed as biochemical.
For test [2], the target named is T2, SARS-CoV-2^F360N/D361S MD (Severe acute respiratory syndrome coronavirus 2, UniProt P0DTD1, D1179S/F1178N). The test is classed as biochemical.
For test [3], the target named is T1, SARS-CoV-2^A358V/F360N MD. The test is classed as binding.
Test [4] has as its target T2, SARS-CoV-2^F360N/D361S MD. The class given is binding.

For the compound `N#C[C@@]1(c2ccc3c(N)ncnn23)O[C@H](CO)[C@@H](O)[C@H]1O` [GS-441524], the “Initial substrate decay rate k” value in test [1] turned out to be 0.127 ± 0.01 µM/min; in test [2], 0.160 ± 0.007 µM/min. In addition, the “decrease of the k value vs free form” value in test [1] worked out at 33.2%; in test [2], 24.9%. Moreover, the “exchange regime on NMR time scale” value in test [3] and in test [4] was “fast exchange regime” throughout.

The values above are taken from paper PMC9284540 (Journal of Molecular Biology, 2022).
